Numbers after ± are expanded uncertainties.
Legend:
[1] = Liquid; for mass density: 298.15 K, 101.33 kPa
[2] = refractive index (Na D-line) (dimensionless); conditions: 298.15 K; 101.33 kPa; Liquid; Standard Abbe refractometry

mass density [1] | vapor or sublimation pressure ([1]; 363.16 K) | refractive index [2] | vapor or sublimation pressure ([1]; 410.62 K) | vapor or sublimation pressure ([1]; 369.75 K) | SMILES
741.81 ± 0.91 kg/m3 | 101.3 ± 1.8 kPa | 1.3784 ± 0.0008 |  |  | CCCOCCC [dipropyl ether]
810.89 ± 0.77 kg/m3 |  | 1.408 ± 0.0008 | 101.3 ± 1.8 kPa |  | CCCCCO [pentan-1-ol]
799.62 ± 0.48 kg/m3 |  | 1.3836 ± 0.0007 |  | 101.3 ± 1.8 kPa | CCCO [propan-1-ol]
